In US12268727B2, “Bioactive polypeptides for improvements in plant protection, growth and productivity” (priority 2017, dated 2025):

Tests used:
Format in all cases: in vivo
soybean [1] = assay: Foliar application to soybean, field yield trials
soybean [2] = assay: Seed treatment of soybean, field yield trials
squash = assay: Foliar application to squash, yield; details: Crookneck squash
Source text: Formulation 2 (F2) consists of the D RI Bt.4Q7 Flg22 applied with 0.01% (wv) non-ionic surfactant. […] Yield comparisons were made between the plants treated with the foliar Bt.4Q7Flg22 F1 and F2 spray applications compared to the control (water) or non-treated squash plants. Squash plants were cultivated in sandy loam soil as follows. 2.5 cm holes were cut in 2.5 ft. (0.76 m) wide plastic covered mounds, two rows per mound, holes spaced 1.5 ft (0.46 m) apart within each row. Rows were staggered within the mound. Mounds were spaced 4 ft (1.2 m) apart. Three squash seeds were planted per hole and thinned to a single plant per hole 14 days after planting. Drip irrigation tubing was laid in the center of each mound, and plants were watered as necessary.
Squash plants were grown from seed in raised beds until bloom, and foliar treated in the same Florida (FL) location using two replicated trials or two separate harvests. Yield for the foliar Bt.4Q7Flg22 applied F1 and F2 treated plants is reported as the number of squash per plant, the weight (grams) per squash and the total squash yield (lbs/Ac) and represented as a percentage change as compared to non-treated control plants (Table 31).
Yield comparisons were made between the plants treated with the polypeptides compared to surfactant only control plants, with three replicates per treatment. […] Replicates with average yield per plant 50% above or 50% below the median yield for the trial were excluded as outliers.
Squash plants were cultivated in sandy loam soil as follows. 2.5 cm holes were cut in 0.76 meters wide plastic covered mounds, two rows per mound, holes spaced 0.46 meters apart within each row. Rows were staggered within the mound. Mounds were spaced 1.2 meters apart. Three squash seeds were planted per hole and thinned to a single plant per hole 14 days after planting. Drip irrigation tubing was laid in the center of each mound, and plants were watered as necessary.

soybean [3] = assay: Soybean pod number after foliar application; details: 300 nM at R1 and 17 days later, counted after 31 days
Experimental: Plants were then placed under a long day conditions consisting of 16/8 light/day cycle and temperature 21-26° C. to promote early flowering and speed up progression to the reproductive (R) growth stage. When the soybean plants had reached the R1 stage of development a foliar application containing the Gm.RHPP (SEQ ID NO: 600) polypeptide at a final concentration of 300 nM and a non-ionic surfactant of 0.10% (NIS90:10; Precision Laboratories, LLC) was applied to soybean. Soybean plants were provided with the Gm.RHPP formulation and a non-ionic surfactant only control. Both the Gm.RHPP and the non-ionic surfactant control treatment were applied to 18 plants per treatment. Six equidistant sprays were provided approximately 15 cm above per each plant for complete coverage of foliage. After treatment application, the R1 soybean plants were returned to the control environmental growth room. […] Soybean pods of more than 1 mm in length were counted on the plants after 31 days from the first foliar spray treatment applications. […] A p value (p<0.05 for significance) was calculated from a paired T-test comparison between pod number from plants that received the Gm.RHPP and the non-ionic surfactant control treatment applications.

[4] = foliar at R2, 7 US Midwest locations, use rate 0.33 Fl. oz/Ac
[5] = foliar at R2, average of AG3536 and AG3832, use rate RHPP 4.0, N-RAGE MAX 128 Fl. oz/Ac
[6] = Bt.4Q7Flg22 2.0 Fl. oz/Ac, Gm.RHPP 3.2 Fl. oz/Ac

GGIRAAPTGNER (Glycine max) [RHPP, Root Hair Promoting Peptide from Glycine max]
yield advantage on top of foliar fertilizer (soybean [1]; 8 fl oz/Ac with foliar fertilizer, 11 sites): 1 Bu/AC
yield increase over non-treated control (soybean [1]; R2 foliar, 2 varieties, 7 locations, RHPP alone 4.0 Fl. oz/Ac): 1.26 Bu/Ac
yield advantage (soybean [1]; R2 foliar, 4 Fl. oz/Ac, 11 sites): 0.31 Bu/Ac
average yield change vs non-treated control (soybean [1]; R2 foliar, 11 locations, Flg22 polypeptides 0.33 Fl. oz/Ac, RHPP 4 Fl. oz/Ac): 1.2 Bu/Ac
yield increase compared to fertilizer alone (soybean [1]; RHPP 1 Fl. oz/Ac (300 nM) with N-RAGE MAX, R2, variety AG3536, 5 locations): 1.4 Bu/Ac
Average Bu/Ac Increase compared to Control Variety 1 and 2 (soybean [1]; [4]): +0.35 Bu/Ac
Average Total Yield Bu/Ac Variety 1 and 2 (soybean [1]; [4]): 60.92 Bu/Ac
Average Total Yield Bu/Ac Variety 2 (soybean [1]; foliar at R2, AG3536, 7 US Midwest locations, use rate 0.33 Fl. oz/Ac): 62.44 Bu/Ac
Average Bu/Ac Change compared to Control Variety 1 and 2 (soybean [1]; [5]): +0.9 Bu/Ac
Average Total Yield Bu/Ac Variety 1 and 2 (soybean [1]; [5]): 63.23 Bu/Ac
Average Total Yield Bu/Ac Variety 1 (soybean [1]; foliar at R2, variety 1 (AG3536), 5 US Midwest locations, use rate RHPP 4.0, N-RAGE MAX 128 Fl. oz/Ac): 65.42 Bu/Ac
Average Total Yield Bu/Ac Variety 2 (soybean [1]; foliar at R2, variety 2 (AG3832), 5 US Midwest locations, use rate RHPP 4.0, N-RAGE MAX 128 Fl. oz/Ac): 61.04 Bu/Ac
win rate (soybean [2]; seed treatment, 11 sites): 73%
yield increase (soybean [2]; seed treatment, 11 sites): 1.2 bu/Ac
win rate (soybean [2]; third study, 12 locations): 64%
yield benefit (soybean [2]; third study, 12 locations): 0.4 Bu/Ac
Average squash fruit weight (grams) per plant (squash; foliar at first bloom, Bt.4Q7Flg22 16.7 μM 2 fl oz/Ac, Gm.RHPP 100 μM 3.2 fl oz/Ac, two harvests): 748.4 grams
Percentage Change in Fruit Weight Compared to Surfactant only control (squash; foliar at first bloom, Bt.4Q7Flg22 2 fl oz/Ac, Gm.RHPP 3.2 fl oz/Ac): +4.4%
change in fruit weight vs surfactant only control (squash; [6]): 4.4%
increase in weight of harvested squash fruit per plant (squash; [6]): 31.7 grams
pod count vs non-ionic surfactant control (soybean [3]): approximately doubled pod count
